Key:
[1] = biological target: Protein kinase C alpha type (Homo sapiens) (UniProt P17252); test: Inhibition of PKCalpha at 10 uM
[2] = biological target: Vascular endothelial growth factor receptor 1 (Homo sapiens) (UniProt P17948); test: Inhibition of FLT1 at 10 uM
[3] = biological target: MAP kinase-activated protein kinase 3 (Homo sapiens) (UniProt Q16644); test: Inhibition of MAPKAPK3 at 10 uM
[4] = biological target: Calcium/calmodulin-dependent protein kinase type 1 (Homo sapiens) (UniProt Q14012); test: Inhibition of CaMK1alpha at 10 uM
[5] = biological target: Mast/stem cell growth factor receptor Kit (Homo sapiens) (UniProt P10721); test: Inhibition of KIT at 10 uM
Liver [6] = test: Half life in mouse liver microsome at 3 uM; type: ADME; conditions: microsomes
[7] = biological target: Ephrin type-B receptor 4 (Homo sapiens) (UniProt P54760); test: Inhibition of EPHB4 at 10 uM
[8] = biological target: cGMP-dependent protein kinase 2 (Homo sapiens) (UniProt Q13237); test: Inhibition of CGK2 at 10 uM
[9] = biological target: Mitogen-activated protein kinase 3 (Homo sapiens) (UniProt P27361); test: Inhibition of Erk1 at 10 uM
[10] = biological target: NUAK family SNF1-like kinase 1 (Homo sapiens) (UniProt O60285); test: Inhibition of NuaK1 at 10 uM
[11] = biological target: Dual specificity mitogen-activated protein kinase kinase 5 (Homo sapiens) (UniProt Q13163); test: Inhibition of MAP2K5 at 10 uM
[12] = biological target: Aurora kinase C (Homo sapiens) (UniProt Q9UQB9); test: Inhibition of AurC at 10 uM
[13] = biological target: Serine/threonine-protein kinase Nek2 (Homo sapiens) (UniProt P51955); test: Inhibition of NEK2 at 10 uM
[14] = system: Tyrosine-protein kinase ABL1 (Homo sapiens), P00519 [T315I]; test: Inhibition of ABL T315I mutant at 10 uM
[15] = system: Epidermal growth factor receptor (Homo sapiens), P00533 [L858R,T790M]; test: Inhibition of EGFR T790M/L858R mutant at 10 uM; type: protein assay
[16] = biological target: Mitogen-activated protein kinase kinase kinase 3 (Homo sapiens) (UniProt Q99759); test: Inhibition of MAP3K3 at 10 uM
[17] = biological target: Vascular endothelial growth factor receptor 3 (Homo sapiens) (UniProt P35916); test: Inhibition of FLT4 at 10 uM
[18] = biological target: Ephrin type-A receptor 5 (Homo sapiens) (UniProt P54756); test: Inhibition of EPHA5 at 10 uM
[19] = biological target: Inhibitor of nuclear factor kappa-B kinase subunit beta (Homo sapiens) (UniProt O14920); test: Inhibition of IKKb at 10 uM
[20] = biological target: Homeodomain-interacting protein kinase 2 (Homo sapiens) (UniProt Q9H2X6); test: Inhibition of HIPK2 at 10 uM
[21] = biological target: Proto-oncogene tyrosine-protein kinase receptor Ret (Homo sapiens) (UniProt P07949); test: Inhibition of RET at 10 uM
[22] = biological target: Platelet-derived growth factor receptor beta (Homo sapiens) (UniProt P09619); test: Inhibition of PDGFRb at 10 uM
[23] = biological target: Tyrosine-protein kinase Yes (Homo sapiens) (UniProt P07947); test: Inhibition of YES at 10 uM
[24] = biological target: Protein-tyrosine kinase 2-beta (Homo sapiens) (UniProt Q14289); test: Inhibition of PYK2 at 10 uM
[25] = biological target: Dual specificity protein kinase TTK (Homo sapiens) (UniProt P33981); test: Inhibition of TTK at 10 uM
[26] = biological target: Cytoplasmic tyrosine-protein kinase BMX (Homo sapiens) (UniProt P51813); test: Inhibition of BMX at 10 uM
[27] = system: Mast/stem cell growth factor receptor Kit (Homo sapiens), P10721 [V654A]; test: Inhibition of KIT V654A mutant at 10 uM
Liver [28] = test: Intrinsic clearance in mouse liver microsome at 3 uM; type: ADME; conditions: microsomes
[29] = biological target: RAC-beta serine/threonine-protein kinase (Homo sapiens) (UniProt P31751); test: Inhibition of AKT2 at 10 uM
[30] = biological target: Serine/threonine-protein kinase 38-like (Homo sapiens) (UniProt Q9Y2H1); test: Inhibition of NDR2 at 10 uM
[31] = biological target: Ephrin type-A receptor 3 (Homo sapiens) (UniProt P29320); test: Inhibition of EPHA3 at 10 uM
[32] = biological target: Tyrosine-protein kinase JAK2 (Homo sapiens) (UniProt O60674); test: Inhibition of JAK2 at 10 uM
[33] = biological target: Dual specificity protein kinase CLK2 (Homo sapiens) (UniProt P49760); test: Inhibition of CLK2 at 10 uM
[34] = biological target: Angiopoietin-1 receptor (Homo sapiens) (UniProt Q02763); test: Inhibition of TIE2 at 10 uM
[35] = biological target: Tyrosine-protein kinase Fes/Fps (Homo sapiens) (UniProt P07332); test: Inhibition of FES at 10 uM
[36] = biological target: Mitogen-activated protein kinase kinase kinase 5 (Homo sapiens) (UniProt Q99683); test: Inhibition of MAP3K5 at 10 uM
[37] = biological target: Mitogen-activated protein kinase kinase kinase kinase 4 (Homo sapiens) (UniProt O95819); test: Inhibition of HGK at 10 uM
[38] = biological target: Cyclin-dependent kinase 5/CDK5 activator 1 (Homo sapiens) (UniProt Q00535+Q15078); test: Inhibition of CDK5-p25 at 10 uM; type: protein-complex assay
[39] = biological target: Testis-specific serine/threonine-protein kinase 1 (Homo sapiens) (UniProt Q9BXA7); test: Inhibition of TSSK1 at 10 uM
[40] = biological target: Proto-oncogene serine/threonine-protein kinase mos (Homo sapiens) (UniProt P00540); test: Inhibition of MOS at 10 uM
[41] = biological target: Insulin-like growth factor 1 receptor (Homo sapiens) (UniProt P08069); test: Inhibition of IGF1R at 10 uM
[42] = biological target: Serine/threonine-protein kinase DCLK2 (Homo sapiens) (UniProt Q8N568); test: Inhibition of DCAMKL2 at 10 uM
TAK1/TAB1 (Homo sapiens) = TAK1/TAB1 (Homo sapiens) (UniProt Q15750+O43318); test: Inhibition of TAK1-TAB1 at 10 uM; type: protein-complex assay
[43] = biological target: Megakaryocyte-associated tyrosine-protein kinase (Homo sapiens) (UniProt P42679); test: Inhibition of CTK at 10 uM
[44] = biological target: Serine/threonine-protein kinase PLK3 (Homo sapiens) (UniProt Q9H4B4); test: Inhibition of PLK3 at 10 uM
[45] = biological target: Serine/threonine-protein kinase NIM1 (Homo sapiens) (UniProt Q8IY84); test: Inhibition of NIM1 at 10 uM
[46] = biological target: Serine/threonine-protein kinase PAK 5 (Homo sapiens) (UniProt Q9P286); test: Inhibition of PAK5 (PAK7) at 10 uM

Platelet-derived growth factor receptor beta (Homo sapiens), sequence (P09619 whole entry): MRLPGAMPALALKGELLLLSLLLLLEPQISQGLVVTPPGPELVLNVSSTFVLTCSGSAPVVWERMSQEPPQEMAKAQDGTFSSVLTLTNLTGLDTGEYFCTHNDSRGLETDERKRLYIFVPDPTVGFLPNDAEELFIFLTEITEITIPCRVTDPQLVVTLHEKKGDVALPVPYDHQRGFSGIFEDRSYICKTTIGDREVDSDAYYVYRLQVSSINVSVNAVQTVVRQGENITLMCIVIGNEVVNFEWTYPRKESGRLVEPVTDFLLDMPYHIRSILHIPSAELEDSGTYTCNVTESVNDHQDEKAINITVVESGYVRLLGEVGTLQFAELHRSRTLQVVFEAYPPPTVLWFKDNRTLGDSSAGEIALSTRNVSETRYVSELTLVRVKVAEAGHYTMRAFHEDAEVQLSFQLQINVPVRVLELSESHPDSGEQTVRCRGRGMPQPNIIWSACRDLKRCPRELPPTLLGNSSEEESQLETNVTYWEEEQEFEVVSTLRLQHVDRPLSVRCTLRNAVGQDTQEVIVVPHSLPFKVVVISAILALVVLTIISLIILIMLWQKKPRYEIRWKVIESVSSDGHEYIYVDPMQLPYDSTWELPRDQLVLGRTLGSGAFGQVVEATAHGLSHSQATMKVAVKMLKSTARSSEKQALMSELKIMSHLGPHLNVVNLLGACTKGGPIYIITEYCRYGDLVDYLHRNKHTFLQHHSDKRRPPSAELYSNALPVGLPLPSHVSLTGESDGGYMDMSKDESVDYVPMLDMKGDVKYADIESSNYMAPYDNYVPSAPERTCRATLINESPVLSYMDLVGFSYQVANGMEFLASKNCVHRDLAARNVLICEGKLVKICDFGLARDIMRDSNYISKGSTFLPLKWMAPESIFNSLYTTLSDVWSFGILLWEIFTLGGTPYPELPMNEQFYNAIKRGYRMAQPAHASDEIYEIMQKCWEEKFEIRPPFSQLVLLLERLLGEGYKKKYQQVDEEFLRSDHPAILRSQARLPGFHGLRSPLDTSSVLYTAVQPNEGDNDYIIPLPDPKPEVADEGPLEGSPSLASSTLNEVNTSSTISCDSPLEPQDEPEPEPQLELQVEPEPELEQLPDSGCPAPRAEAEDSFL
Ephrin type-A receptor 3 (Homo sapiens), sequence (P29320 whole entry): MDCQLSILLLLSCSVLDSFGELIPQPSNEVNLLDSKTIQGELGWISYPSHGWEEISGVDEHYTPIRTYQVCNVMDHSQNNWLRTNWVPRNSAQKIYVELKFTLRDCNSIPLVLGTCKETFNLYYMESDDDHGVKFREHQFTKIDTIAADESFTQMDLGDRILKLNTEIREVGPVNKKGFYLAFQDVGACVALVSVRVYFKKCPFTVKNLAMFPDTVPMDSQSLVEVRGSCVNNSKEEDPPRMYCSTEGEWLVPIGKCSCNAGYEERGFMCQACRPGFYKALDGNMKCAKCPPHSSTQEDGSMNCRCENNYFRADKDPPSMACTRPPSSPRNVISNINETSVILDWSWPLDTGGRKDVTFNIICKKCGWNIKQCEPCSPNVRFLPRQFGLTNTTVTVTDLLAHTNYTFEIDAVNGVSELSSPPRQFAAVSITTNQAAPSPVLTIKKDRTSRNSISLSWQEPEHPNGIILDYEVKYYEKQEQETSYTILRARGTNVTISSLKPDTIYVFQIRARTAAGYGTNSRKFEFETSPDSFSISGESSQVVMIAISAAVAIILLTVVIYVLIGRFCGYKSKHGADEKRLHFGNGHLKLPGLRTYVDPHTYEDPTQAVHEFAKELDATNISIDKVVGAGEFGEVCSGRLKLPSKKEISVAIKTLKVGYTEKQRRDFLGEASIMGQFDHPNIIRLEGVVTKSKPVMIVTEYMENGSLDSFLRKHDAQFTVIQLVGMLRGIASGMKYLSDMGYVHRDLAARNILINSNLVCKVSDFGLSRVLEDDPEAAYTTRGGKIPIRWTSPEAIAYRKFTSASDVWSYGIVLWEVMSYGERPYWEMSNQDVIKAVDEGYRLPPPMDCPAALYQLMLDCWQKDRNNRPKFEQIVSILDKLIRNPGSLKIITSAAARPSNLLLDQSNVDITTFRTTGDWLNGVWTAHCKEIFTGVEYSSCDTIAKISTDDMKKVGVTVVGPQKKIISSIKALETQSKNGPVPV
Dual specificity mitogen-activated protein kinase kinase 5 (Homo sapiens), sequence (Q13163 whole entry): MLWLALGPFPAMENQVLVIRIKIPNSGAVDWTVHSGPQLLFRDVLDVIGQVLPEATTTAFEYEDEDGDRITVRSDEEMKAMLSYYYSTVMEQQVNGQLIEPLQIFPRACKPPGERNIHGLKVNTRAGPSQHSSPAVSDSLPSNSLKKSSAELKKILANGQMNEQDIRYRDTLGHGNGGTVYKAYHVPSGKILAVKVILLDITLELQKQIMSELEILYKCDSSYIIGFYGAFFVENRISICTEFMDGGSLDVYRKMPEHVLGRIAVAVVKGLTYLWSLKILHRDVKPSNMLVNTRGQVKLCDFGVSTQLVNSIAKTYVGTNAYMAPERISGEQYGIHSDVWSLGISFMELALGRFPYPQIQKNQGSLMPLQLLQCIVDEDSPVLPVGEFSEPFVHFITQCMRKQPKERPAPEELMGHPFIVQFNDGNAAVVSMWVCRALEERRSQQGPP
Serine/threonine-protein kinase PLK3 (Homo sapiens), sequence (Q9H4B4 whole entry, looked up): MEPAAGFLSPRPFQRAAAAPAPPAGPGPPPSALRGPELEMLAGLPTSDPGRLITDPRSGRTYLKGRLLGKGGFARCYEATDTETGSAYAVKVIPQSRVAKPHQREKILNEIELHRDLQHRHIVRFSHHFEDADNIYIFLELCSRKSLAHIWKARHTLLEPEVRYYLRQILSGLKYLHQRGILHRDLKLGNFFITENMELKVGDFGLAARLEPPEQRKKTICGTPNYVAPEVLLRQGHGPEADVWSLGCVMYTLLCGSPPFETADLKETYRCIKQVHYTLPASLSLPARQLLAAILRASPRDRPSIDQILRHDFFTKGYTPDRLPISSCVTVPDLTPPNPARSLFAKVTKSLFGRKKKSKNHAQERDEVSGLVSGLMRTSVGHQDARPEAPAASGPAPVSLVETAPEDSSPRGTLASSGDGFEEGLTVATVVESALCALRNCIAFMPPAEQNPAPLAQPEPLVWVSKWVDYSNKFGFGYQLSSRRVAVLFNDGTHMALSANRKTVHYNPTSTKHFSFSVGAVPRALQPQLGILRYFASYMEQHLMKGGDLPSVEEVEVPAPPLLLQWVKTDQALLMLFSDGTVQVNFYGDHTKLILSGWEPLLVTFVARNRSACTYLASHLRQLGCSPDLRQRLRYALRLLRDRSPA
Tyrosine-protein kinase JAK2 (Homo sapiens), sequence (O60674 whole entry): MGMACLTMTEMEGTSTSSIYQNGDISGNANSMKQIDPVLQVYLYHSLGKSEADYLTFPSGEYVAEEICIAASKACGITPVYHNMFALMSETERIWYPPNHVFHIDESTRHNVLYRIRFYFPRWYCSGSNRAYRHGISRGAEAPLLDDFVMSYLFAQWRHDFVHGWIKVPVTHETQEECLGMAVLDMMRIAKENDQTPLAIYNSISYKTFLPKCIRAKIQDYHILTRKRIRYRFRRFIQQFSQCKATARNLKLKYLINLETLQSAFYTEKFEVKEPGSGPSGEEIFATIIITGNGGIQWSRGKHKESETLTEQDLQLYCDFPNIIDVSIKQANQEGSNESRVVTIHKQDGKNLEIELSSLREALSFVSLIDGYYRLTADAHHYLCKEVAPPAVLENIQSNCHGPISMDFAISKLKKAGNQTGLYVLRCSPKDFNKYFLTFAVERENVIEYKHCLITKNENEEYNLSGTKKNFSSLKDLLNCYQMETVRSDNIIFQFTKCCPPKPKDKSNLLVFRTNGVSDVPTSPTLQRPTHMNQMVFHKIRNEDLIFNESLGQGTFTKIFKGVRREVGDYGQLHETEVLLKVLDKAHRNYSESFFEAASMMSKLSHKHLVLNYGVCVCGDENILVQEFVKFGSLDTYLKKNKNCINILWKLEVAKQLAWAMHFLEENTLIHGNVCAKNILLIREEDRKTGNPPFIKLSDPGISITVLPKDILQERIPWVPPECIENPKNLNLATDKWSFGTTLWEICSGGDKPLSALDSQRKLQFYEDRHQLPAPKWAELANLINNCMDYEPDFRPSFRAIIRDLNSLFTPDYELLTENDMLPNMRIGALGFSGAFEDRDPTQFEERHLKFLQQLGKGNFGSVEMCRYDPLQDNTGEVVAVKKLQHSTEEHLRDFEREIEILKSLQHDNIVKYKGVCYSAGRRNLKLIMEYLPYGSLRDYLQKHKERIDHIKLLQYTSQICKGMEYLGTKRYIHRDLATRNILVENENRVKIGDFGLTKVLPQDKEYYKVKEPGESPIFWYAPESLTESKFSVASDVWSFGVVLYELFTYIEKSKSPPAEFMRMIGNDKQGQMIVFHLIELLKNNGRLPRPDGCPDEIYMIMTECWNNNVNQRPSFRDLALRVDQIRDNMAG

COc1ccc2c3ccnc(C(F)(F)F)c3n(CCCCN)c2c1
inhibition [1]: 26% | inhibition [2]: 8% | inhibition [3]: 1% | inhibition [4]: 14% | inhibition [5]: 10% | t1/2 (Liver [6]): 5.68 h | inhibition [7]: 0% | inhibition [8]: 91% | inhibition [9]: 2% | inhibition [10]: 30% | inhibition [11]: 1% | inhibition [12]: 1% | inhibition [13]: 1% | inhibition [14]: 0% | inhibition [15]: 4% | inhibition [16]: 0% | inhibition [17]: 9% | inhibition [18]: 4% | inhibition [19]: 30% | inhibition [20]: 53% | inhibition [21]: 11% | inhibition [22]: 73% | inhibition [23]: 6% | inhibition [24]: 0% | inhibition [25]: 6% | inhibition [26]: 3% | inhibition [27]: 5% | CLH (Liver [28]): 3.8 µL/min/mg | inhibition [29]: 4% | inhibition [30]: 2% | inhibition [31]: 0% | inhibition [32]: 0% | inhibition [33]: 99% | inhibition [34]: 0% | inhibition [35]: 4% | inhibition [36]: 17% | inhibition [37]: 62% | inhibition [38]: 39% | inhibition [39]: 43% | inhibition [40]: 16% | inhibition [41]: 0% | inhibition [42]: 4% | inhibition (TAK1/TAB1 (Homo sapiens)): 12% | inhibition [43]: 25% | inhibition [44]: 10% | inhibition [45]: 1% | inhibition [46]: 6%
